Measured values as given in PubChem BioAssay AID330 (DTP/NCI, 2004).
Where “and” joins values, the source holds several entries; their conditions need not be identical. Identical values can stand only once. Inconclusive results and toxic doses are left out. Square brackets hold non-standard residues; d marks the D form. Peptide text beside a SMILES is read from it. * marks the point of attachment. Cbz = O=C(OCc1ccccc1)*; Nva = CCC[CH](N)C(=O)O

Tested on: P388 leukemia ip, CD2F1 mice, survival T/C
Experiment: NCI In Vivo Anticancer Drug Screen. Data for tumor model P388 Leukemia (intraperitoneal) in CD2F1 (CDF1) mice
Conditions: endpoint: median survival time, higher = longer survival
Summary of the method: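 Mice carrying the transplanted tumor received test compound or vehicle. Survival was recorded in each group, and the value is the treated-group measurement divided by that of the vehicle-treated control group.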

[1] = dose: 200.0 mg/kg/injection, schedule: Q01DX009 (ip), vehicle: saline
[2] = dose: 50.0 mg/kg/injection, schedule: Q01DX009 (ip), vehicle: saline
[3] = dose: 100.0 mg/kg/injection, schedule: Q01DX009 (ip), vehicle: saline
[4] = dose: 25.0 mg/kg/injection, schedule: Q04DX003 (ip), vehicle: saline with Tween-80
[5] = dose: 50.0 mg/kg/injection, schedule: Q04DX003 (ip), vehicle: saline with Tween-80
[6] = dose: 100.0 mg/kg/injection, schedule: Q04DX003 (ip), vehicle: saline with Tween-80
[7] = dose: 50.0 mg/kg/injection, schedule: Q01DX009 (ip), vehicle: saline with Tween-80
[8] = dose: 100.0 mg/kg/injection, schedule: Q01DX009 (ip), vehicle: saline with Tween-80

SMILES: CCOC(=O)C(N)CSC(=O)NC (configuration not stated)
- T/C (dose: 10.4 mg/kg/injection, schedule: Q03HX024 (ip), vehicle: saline): 118 % of control
- T/C (dose: 20.8 mg/kg/injection, schedule: Q03HX024 (ip), vehicle: saline): 124 % of control
- T/C (dose: 25.0 mg/kg/injection, schedule: Q01DX005 (ip), vehicle: saline): 108 % of control
- T/C (dose: 27.7 mg/kg/injection, schedule: Q01DX009 (ip), vehicle: saline): 119 % of control
- T/C (dose: 27.7 mg/kg/injection, schedule: Q01DX009 (oral), vehicle: saline): 109 % of control
- T/C (dose: 31.2 mg/kg/injection, schedule: Q03HX008 (ip), vehicle: saline): 111 % of control
- T/C (dose: 50.0 mg/kg/injection, schedule: Q01DX005 (ip), vehicle: saline): 112 % of control and 114 % of control (2×)
- T/C (dose: 50.0 mg/kg/injection, schedule: Q01DX005 (iv), vehicle: saline): 101 % of control
- T/C (dose: 55.5 mg/kg/injection, schedule: Q01DX009 (oral), vehicle: saline): 111 % of control
- T/C (dose: 62.5 mg/kg/injection, schedule: Q03HX008 (ip), vehicle: saline): 120 % of control
- T/C (dose: 83.3 mg/kg/injection, schedule: Q03HX024 (ip), vehicle: saline): 162 % of control
- T/C (dose: 83.3 mg/kg/injection, schedule: Q04DX003 (ip), vehicle: saline): 113 % of control
- T/C (dose: 100.0 mg/kg/injection, schedule: Q01DX005 (iv), vehicle: saline): 106 % of control
- T/C (dose: 111.1 mg/kg/injection, schedule: Q01DX009 (oral), vehicle: saline): 120 % of control
- T/C (dose: 133.0 mg/kg/injection, schedule: Q01DX009 (ip), vehicle: saline): 152 % of control
- T/C (dose: 166.6 mg/kg/injection, schedule: Q03HX024 (ip), vehicle: saline): 187 % of control
- T/C (dose: 166.6 mg/kg/injection, schedule: Q04DX003 (ip), vehicle: saline): 120 % of control
- T/C (dose: 200.0 mg/kg/injection, schedule: Q01DX005 (iv), vehicle: saline): 118 % of control
- T/C [1]: 154 % of control
- T/C (dose: 222.2 mg/kg/injection, schedule: Q01DX009 (ip), vehicle: saline): 156 % of control
- T/C (dose: 250.0 mg/kg/injection, schedule: Q01DX001 (ip), vehicle: saline): 114 % of control
- T/C (dose: 250.0 mg/kg/injection, schedule: Q01DX001 (iv), vehicle: saline): 92 % of control
- T/C (dose: 300.0 mg/kg/injection, schedule: Q01DX009 (ip), vehicle: saline): 170 % of control
- T/C (dose: 444.4 mg/kg/injection, schedule: Q01DX009 (ip), vehicle: saline): 169 % of control
- T/C (dose: 444.4 mg/kg/injection, schedule: Q01DX009 (oral), vehicle: saline): 155 % of control
- T/C (dose: 500.0 mg/kg/injection, schedule: Q01DX001 (ip), vehicle: saline): 117 % of control
- T/C (dose: 500.0 mg/kg/injection, schedule: Q01DX001 (iv), vehicle: saline): 102 % of control
- T/C (dose: 666.6 mg/kg/injection, schedule: Q04DX003 (ip), vehicle: saline): 153 % of control
- T/C (dose: 888.8 mg/kg/injection, schedule: Q01DX009 (oral), vehicle: saline): 195 % of control
- T/C (dose: 1000.0 mg/kg/injection, schedule: Q01DX001 (ip), vehicle: saline): 119 % of control

SMILES: Cc1ccc(C2N(CCN3C(=O)CS(=O)(=O)C3c3ccc(C)s3)C(=O)CS2(=O)=O)s1 (configuration not stated)
- T/C (dose: 100.0 mg/kg/injection, schedule: Q01DX001 (ip), vehicle: saline with Tween-80): 101 % of control
- T/C (dose: 100.0 mg/kg/injection, schedule: Q04DX002 (ip), vehicle: saline with Tween-80): 97 % of control
- T/C (dose: 200.0 mg/kg/injection, schedule: Q01DX001 (ip), vehicle: saline with Tween-80): 94 % of control
- T/C (dose: 200.0 mg/kg/injection, schedule: Q04DX002 (ip), vehicle: saline with Tween-80): 87 % of control
- T/C (dose: 400.0 mg/kg/injection, schedule: Q01DX001 (ip), vehicle: saline with Tween-80): 91 % of control

SMILES: O=NN(CCF)C(=O)Oc1ccc([N+](=O)[O-])cc1
- T/C (dose: 12.5 mg/kg/injection, schedule: Q01DX001 (ip), vehicle: Klucel (hydroxypropylcellulose) (HPC)): 114 % of control
- T/C (dose: 25.0 mg/kg/injection, schedule: Q01DX001 (ip), vehicle: Klucel (hydroxypropylcellulose) (HPC)): 112 % of control

SMILES: COC(OC)C(C(=O)c1ccc(OCc2ccccc2)cc1O)c1cc2c(cc1OCc1ccccc1)OCO2 (configuration not stated)
- T/C (dose: 100.0 mg/kg/injection, schedule: Q04DX003 (ip), vehicle: Klucel (hydroxypropylcellulose) (HPC)): 96 % of control
- T/C (dose: 200.0 mg/kg/injection, schedule: Q04DX003 (ip), vehicle: Klucel (hydroxypropylcellulose) (HPC)): 101 % of control
- T/C (dose: 400.0 mg/kg/injection, schedule: Q04DX003 (ip), vehicle: Klucel (hydroxypropylcellulose) (HPC)): 98 % of control

SMILES: NCCC(=O)OC1CCCc2c(O)c3c(c(O)c21)C(=O)c1ccccc1C3=O (configuration not stated)
- T/C (dose: 3.12 mg/kg/injection, schedule: Q01DX009 (ip), vehicle: water): 103 % of control
- T/C (dose: 6.25 mg/kg/injection, schedule: Q01DX009 (ip), vehicle: water): 94 % of control
- T/C (dose: 12.5 mg/kg/injection, schedule: Q01DX009 (ip), vehicle: water): 100 % of control
- T/C (dose: 25.0 mg/kg/injection, schedule: Q01DX009 (ip), vehicle: water): 93 % of control
- T/C (dose: 50.0 mg/kg/injection, schedule: Q01DX009 (ip), vehicle: water): 93 % of control

SMILES: CC(/C=C/c1ccccc1)=N\NC(N)=O
- T/C [2]: 105 % of control
- T/C [3]: 115 % of control
- T/C [1]: 118 % of control

SMILES: CCCC(NC(=O)OCc1ccccc1)C(=O)NC(Cc1ccc(O)cc1)C(N)=O (configuration not stated) (Cbz-[Nva]-Tyr-NH2; configuration not given here)
- T/C (dose: 50.0 mg/kg/injection, schedule: Q01DX005 (ip), vehicle: Klucel (hydroxypropylcellulose) (HPC)): 92 % of control
- T/C (dose: 100.0 mg/kg/injection, schedule: Q01DX005 (ip), vehicle: Klucel (hydroxypropylcellulose) (HPC)): 100 % of control
- T/C (dose: 200.0 mg/kg/injection, schedule: Q01DX005 (ip), vehicle: Klucel (hydroxypropylcellulose) (HPC)): 88 % of control

SMILES: O=c1c2ccccc2c2ccccc2n1O
- T/C [4]: 99 % of control
- T/C [5]: 99 % of control
- T/C [6]: 97 % of control
- T/C (dose: 200.0 mg/kg/injection, schedule: Q04DX003 (ip), vehicle: saline with Tween-80): 97 % of control

SMILES: COc1ccccc1N1CCN(c2nc(NC(=O)c3ccccc3)nn2C)CC1
- T/C (dose: 60.0 mg/kg/injection, schedule: Q01DX005 (ip), vehicle: Klucel (hydroxypropylcellulose) (HPC)): 112 % of control
- T/C (dose: 120.0 mg/kg/injection, schedule: Q01DX005 (ip), vehicle: Klucel (hydroxypropylcellulose) (HPC)): 87 % of control

SMILES: CC(=O)SC12CCCN1C(=O)C1(SC(C)=O)CCCN1C2=O (configuration not stated)
- T/C (dose: 6.25 mg/kg/injection, schedule: Q01DX009 (ip), vehicle: saline): 98 % of control
- T/C (dose: 12.5 mg/kg/injection, schedule: Q01DX009 (ip), vehicle: saline): 104 % of control
- T/C (dose: 25.0 mg/kg/injection, schedule: Q01DX009 (ip), vehicle: saline): 104 % of control
- T/C [2]: 103 % of control
- T/C [3]: 111 % of control

SMILES: c1ccc(C2=NCCCO2)cc1
- T/C (dose: 25.0 mg/kg/injection, schedule: Q01DX009 (ip), vehicle: saline with Tween-80): 104 % of control
- T/C [4]: 100 % of control
- T/C [7]: 95 % of control
- T/C [5]: 100 % of control
- T/C [8]: 108 % of control
- T/C [6]: 100 % of control

SMILES: COc1ccc(-c2nc(C)[nH]c(=O)c2Cc2c(O)ccc3ccccc23)cc1
- T/C [2]: 102 % of control
- T/C [3]: 100 % of control
- T/C [1]: 99 % of control

SMILES: O=[n+]1ccn([O-])c2ccccc21.[Mn].[O-][Cl+3]([O-])([O-])O
- T/C [6]: 118 % of control

SMILES: Cc1ccc2nc(N(C)C)cc(N(C)C)c2c1
- T/C (dose: 6.25 mg/kg/injection, schedule: Q01DX009 (ip), vehicle: Klucel (hydroxypropylcellulose) (HPC)): 99 % of control
- T/C (dose: 12.5 mg/kg/injection, schedule: Q01DX009 (ip), vehicle: Klucel (hydroxypropylcellulose) (HPC)): 110 % of control
- T/C (dose: 25.0 mg/kg/injection, schedule: Q01DX009 (ip), vehicle: Klucel (hydroxypropylcellulose) (HPC)): 103 % of control

SMILES: CC1C(N)CC2CC1C2(C)C (configuration not stated)
- T/C [7]: 104 % of control
- T/C [8]: 112 % of control

SMILES: COc1cccc2c1C(=O)c1c(O)c3c(c(O)c1C2=O)CC(O)(C(C)=O)CC3OC1CC(NC(=O)C(F)(F)F)C(OC(=O)c2ccc([N+](=O)[O-])cc2)C(CNC(=O)C(F)(F)F)O1 (configuration not stated)
- T/C (dose: 3.13 mg/kg/injection, schedule: Q04DX003 (ip), vehicle: distilled water + Tween-80): 92 % of control
- T/C (dose: 6.25 mg/kg/injection, schedule: Q04DX003 (ip), vehicle: distilled water + Tween-80): 100 % of control
- T/C (dose: 12.5 mg/kg/injection, schedule: Q04DX003 (ip), vehicle: distilled water + Tween-80): 96 % of control
- T/C (dose: 25.0 mg/kg/injection, schedule: Q04DX003 (ip), vehicle: distilled water + Tween-80): 96 % of control
- T/C (dose: 50.0 mg/kg/injection, schedule: Q04DX003 (ip), vehicle: distilled water + Tween-80): 100 % of control
